Experimental data taken from US20030083483A1, “Molecular interaction sites of vimentin RNA and methods of modulating the same” (priority 1999, published 2003).
Entries after “also recorded” stand apart in the source; their conditions may differ.

System: 27-mer RNA corresponding to the 16S rRNA A site containing 3 dA residues
Experiment: MS-MS CID/CAD protection assay on chimeric 27-mer RNA/DNA
Assay type: binding, prokaryotic
Conditions: same activation energy as free RNA
Excerpt: In order to study the binding of paromomycin to the RNA of Example 20, the chimeric RNA/DNA molecule of Example 20 was synthesized using standard automated nucleic acid synthesis protocols on an automated synthesizer. A sample of this nucleic acid was then subjected to ESI followed by CID in a mass spectrometer to afford the fragmentation pattern indicating a lack of structure at the sites of dA incorporation, as described in Example 20. This indicated the accessibility of these dA sites in the structure of the chimeric nucleic acid.
Next, another sample of the chimeric nucleic acid was treated with a solution of paromomycin and the resulting mixture analyzed by ESI followed by CID using a mass spectrometer. […] This was also indicative of binding of the paromomycin to the chimeric nucleic acid, because of the increased mass of the observed ion complex. Further, there was also observed, a shift in the distribution of the multiply charged ion complexes which reflected a change in the conformation of the nucleic acid in the paromomycin-nucleic acid complex into a more compact structure. […]
The mass spectrum obtained from a 5 μM solution of C mixed with 125 nM paromomycin contains [M-5H]^5− ions from free C at m/z 1783.6 and the [M-5H]^5− ions of the paromomycin-C complex at m/z 1907.3. […] Signals from the [M-4H]^4− ions of C and the complex are detected at m/z 2229.8 and 2384.4, respectively. […]

Question: With `NC[C@@H]1O[C@H](O[C@H]2[C@@H](O)[C@H](O[C@@H]3[C@@H](O)[C@H](N)C[C@H](N)[C@H]3O[C@H]3O[C@H](CO)[C@@H](O)[C@H](O)[C@H]3N)O[C@@H]2CO)[C@H](N)[C@@H](O)[C@@H]1O` [Paromomycin] as the molecule, how does the “fragmentation at the dA sites of the ligand-RNA complex on CID/CAD” value read?
Answer: no fragmentation at the dA sites; also recorded: No cleavage was found to occur; also recorded: No significant fragment ions are observed; also recorded: no fragment ions are detected
